*1 amine or outer side, *2 acyl side, *3 side chain or, on linkers, in order; H or OH if unused. Where a SMILES comes first, the peptide text is derived from it. Side-chain parts run from the residue outwards. The star is where a group is joined. C18 diacid = O=C(O)CCCCCCCCCCCCCCCCC(=O)*; γGlu = O=C(O)[C@H](CCC(=O)[*:2])N[*:1]; AEEA = NCCOCCOCC(=O)O

Here are results for five molecules from patent US12508300B2, “Acylated GLP-1 derivative” (Sciwind Biosciences Co., Ltd., priority 2019, dated 2025).

In assay [1] the test system is db/db mice. Nature of the assay: Fasting blood glucose after single injection in type II diabetic db/db mice (FIG. 1). It is filed as in vivo. The settings on record: 0.05 mg/kg s.c. single. Here is the method: The dosage is 0.05 mg/kg for each, and the administration time is set as 0 h. Fasting blood glucose is measured after fasting for 6-8 h every day, and the fasting blood glucose after administration is measured every day until the fasting blood glucose value of each animal of the test group recovers to the value measured before administration. The blood glucose value measured before administration is called the basal blood glucose value, and is set as 0. Change of the fasting blood glucose (Δ: delta)=Blood glucose value after administration-Basal blood glucose value before administration.

Assay [2] deals with T1, GLP1R (Homo sapiens, UniProt P43220).
T1 construct: expressed in transfected cells; host or cells: HEK293
In words: In vitro activity determination in HEK293/CRE-Luc/GLP1R cells (luciferase reporter). It counts as cell-based. Here is the method: Based on the fact that GLP-1 may bind to the receptor on the cell membrane, the HEK293/CRE-Luc/GLPIR cell line is constructed, the CAMP response elements (CRE) are activated through a series of signal transduction, the expression of downstream luciferase is initiated, and the amount of its expression is positively correlated with the biological activity of GLP-1. After adding the luciferase substrate, the chemiluminescence assay is performed to determine the luminous intensity, thereby determining the biological activity of GLP-1.
96-well cell culture plate (white and opaque), DMEM medium (GIBCO), 0.05% TRYPSIN-EDTA (GIBCO), fetal bovine serum (GIBCO), G418, hygromycin B, Bright-Glo™ Luciferase Assay System Kit (Promega), and HEK293/CRE-luc/GLP1R cells.
(1) Cell preparation: the cells are cultured until they grow vigorously and reach a sufficient quantity, discarding the culture medium in the culture bottle, adding 3 ml of Versene solution and shaking once; then adding 2 ml of 0.05% TRYPSIN-EDTA digestion solution, covering the bottle and standing for 1 minute, and then adding 6 ml of the assay medium to quench the digestion; after centrifugation at 1000 r/min for 3 min, the supernatant is discarded, and the cells are resuspended in 5 ml of assay medium and counted on a hemacytometer. The cell density is adjusted to an appropriate range for later use by using DMEM assay medium.
(2) Sample preparation: the derivatives of different GLP-1 analogues in Table 1 are diluted to 20 ng/ml with the assay medium, then gradient diluted into 8 concentrations in 96-well plates, and using the assay medium instead of the sample as the cell blank control. 2 duplicate wells are made for each dilution concentration.
(3) Culturing with addition of the samples: the prepared solutions of the control and test samples are transferred to a 96-well cell culture plate (white board), adding 50 μl of the solution to each well; then adding the prepared cell suspension, adding 50 μl of the suspension to each well; and then incubating for a certain period of time under the conditions of 37° C. and 5% CO2.
(4) Chemiluminescence assay: substrate is added, then taking out the 96-well cell culture plate, adding 100 μl of Bright Glo reagent to each well, and leaving in the dark for 3 min.
(5) Reading: determination is performed with a chemiluminescence microplate reader SpectraMax L, then reading the plate within 30 min, and recording the determined results.
A general note: In a reporter assay the amount or activity of a reporter protein is the signal.

T1 sequence (P43220 24-463, species assumed): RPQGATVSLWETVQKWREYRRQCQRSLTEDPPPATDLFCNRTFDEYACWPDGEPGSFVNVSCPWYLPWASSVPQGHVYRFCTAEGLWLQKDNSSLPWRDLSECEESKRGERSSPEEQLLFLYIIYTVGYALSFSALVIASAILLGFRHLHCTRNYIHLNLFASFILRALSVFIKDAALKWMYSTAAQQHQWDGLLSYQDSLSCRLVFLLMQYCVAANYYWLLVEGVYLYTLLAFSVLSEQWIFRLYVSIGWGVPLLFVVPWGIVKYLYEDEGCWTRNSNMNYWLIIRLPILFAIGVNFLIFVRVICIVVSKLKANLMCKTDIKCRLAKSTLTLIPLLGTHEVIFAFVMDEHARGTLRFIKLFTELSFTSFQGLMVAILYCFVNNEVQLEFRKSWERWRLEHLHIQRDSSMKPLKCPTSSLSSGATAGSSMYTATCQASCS

Turning to `CC[C@H](C)[C@H](NC(=O)[C@H](Cc1ccccc1)NC(=O)[C@H](CCC(=O)O)NC(=O)[C@H](CCCNC(=N)N)NC(=O)[C@H](C)NC(=O)[C@H](C)NC(=O)[C@H](CCCCNC(=O)COCCOCCNC(=O)COCCOCCNC(=O)CC[C@H](NC(=O)CCCCCCCCCCCCCCCCC(=O)O)C(=O)O)NC(=O)[C@H](CCC(=O)O)NC(=O)[C@H](CCC(=O)O)NC(=O)[C@H](CC(C)C)NC(=O)[C@H](Cc1ccc(O)cc1)NC(=O)[C@H](CO)NC(=O)[C@H](CO)NC(=O)[C@@H](NC(=O)[C@H](CC(=O)O)NC(=O)[C@H](CO)NC(=O)[C@@H](NC(=O)[C@H](Cc1ccccc1)NC(=O)[C@@H](NC(=O)CNC(=O)[C@H](CCC(=O)O)NC(=O)[C@@H](NC(=O)[C@@H](N)Cc1c[nH]cn1)[C@@H](C)CC)[C@@H](C)O)[C@@H](C)O)C(C)C)C(=O)N[C@@H](C)C(=O)N[C@@H](Cc1c[nH]c2ccccc12)C(=O)N[C@@H](CC(C)C)C(=O)N[C@H](C(=O)N[C@@H](CCCNC(=N)N)C(=O)NCC(=O)N[C@@H](CCCNC(=N)N)C(=O)NCC(=O)O)C(C)C` [M9, N-ε^23-[2-(2-[2-(2-[2-(2-[4-(17-carboxyheptadecanoylamino)-4(s)-carboxybutyrylamino]ethoxy)ethoxy]acetylamino)ethoxy]ethoxy)acetyl](Ile^8Glu^22Lys^23Arg^26,34-GLP-1 (7-37)) peptide] (H-HIEGTFTSDVSSYLEEK([AEEA-AEEA-γGlu-C18 diacid])AAREFIAWLVRGRG-OH; N-terminus and C-terminus assumed), the “glucose-lowing effect compared with Semaglutide (FIG. 1)” value in assay [1] (day 4 and day 5) was “better than that of Semaglutide”. In assay [2], the “in vitro activities (comparison in words)” value (“in vitro activities” for short) is recorded as “comparable”.
In the case of `CC[C@H](C)[C@H](NC(=O)[C@H](Cc1ccccc1)NC(=O)[C@H](CCC(=O)O)NC(=O)[C@H](CCCNC(=N)N)NC(=O)[C@H](C)NC(=O)[C@H](C)NC(=O)[C@H](CCCCNC(=O)COCCOCCNC(=O)COCCOCCNC(=O)CC[C@H](NC(=O)CCCCCCCCCCCCCCCCC(=O)O)C(=O)O)NC(=O)[C@H](CCC(=O)O)NC(=O)[C@H](CCC(=O)O)NC(=O)[C@H](CC(C)C)NC(=O)[C@H](Cc1ccc(O)cc1)NC(=O)[C@H](CO)NC(=O)[C@H](CO)NC(=O)[C@@H](NC(=O)[C@H](CC(=O)O)NC(=O)[C@H](CO)NC(=O)[C@@H](NC(=O)[C@H](Cc1ccccc1)NC(=O)[C@@H](NC(=O)CNC(=O)[C@H](CCC(=O)O)NC(=O)CNC(=O)[C@@H](N)Cc1c[nH]cn1)[C@@H](C)O)[C@@H](C)O)C(C)C)C(=O)N[C@@H](C)C(=O)N[C@@H](Cc1c[nH]c2ccccc12)C(=O)N[C@@H](CC(C)C)C(=O)N[C@H](C(=O)N[C@@H](CCCNC(=N)N)C(=O)NCC(=O)N[C@@H](CCCNC(=N)N)C(=O)NCC(=O)O)C(C)C` [M11, N-ε^23-[2-(2-[2-(2-[2-(2-[4-(17-carboxyheptadecanoylamino)-4(s)-carboxybutyrylamino]ethoxy)ethoxy]acetylamino)ethoxy]ethoxy)acetyl](Gly^8Glu^22Lys^23Arg^26,34-GLP-1(7-37)) peptide] (H-HGEGTFTSDVSSYLEEK([AEEA-AEEA-γGlu-C18 diacid])AAREFIAWLVRGRG-OH; N-terminus and C-terminus assumed), the “glucose-lowing effect compared with Semaglutide (FIG. 1)” value in assay [1] (day 2) was “lower than that of Semaglutide”. Also, the “in vitro activities” value in assay [2] is recorded as “comparable”.
As to `CC[C@H](C)[C@H](NC(=O)[C@H](Cc1ccccc1)NC(=O)[C@H](CCC(=O)O)NC(=O)[C@H](CCCNC(=N)N)NC(=O)[C@H](C)NC(=O)[C@H](C)NC(=O)[C@H](CCC(N)=O)NC(=O)[C@H](CCC(=O)O)NC(=O)[C@H](CCC(=O)O)NC(=O)[C@H](CC(C)C)NC(=O)[C@H](Cc1ccc(O)cc1)NC(=O)[C@H](CO)NC(=O)[C@H](CO)NC(=O)[C@@H](NC(=O)[C@H](CC(=O)O)NC(=O)[C@H](CO)NC(=O)[C@@H](NC(=O)[C@H](Cc1ccccc1)NC(=O)[C@@H](NC(=O)CNC(=O)[C@H](CCC(=O)O)NC(=O)[C@@H](NC(=O)[C@@H](N)Cc1c[nH]cn1)[C@@H](C)CC)[C@@H](C)O)[C@@H](C)O)C(C)C)C(=O)N[C@@H](CCCCNC(=O)COCCOCCNC(=O)COCCOCCNC(=O)CC[C@H](NC(=O)CCCCCCCCCCCCCCCCC(=O)O)C(=O)O)C(=O)N[C@@H](Cc1c[nH]c2ccccc12)C(=O)N[C@@H](CC(C)C)C(=O)N[C@H](C(=O)N[C@@H](CCCNC(=N)N)C(=O)NCC(=O)N[C@@H](CCCNC(=N)N)C(=O)NCC(=O)O)C(C)C` [M14, N-ε^30-[2-(2-[2-(2-[2-(2-[4-(17-carboxyheptadecanoylamino)-4(s)-carboxybutyrylamino]ethoxy)ethoxy]acetylamino)ethoxy]ethoxy)acetyl](Ile^8Glu^22Lys^30Arg^26,34-GLP-1(7-37)) peptide] (H-HIEGTFTSDVSSYLEEQAAREFIK([AEEA-AEEA-γGlu-C18 diacid])WLVRGRG-OH; N-terminus and C-terminus assumed), the “glucose-lowing effect compared with Semaglutide (FIG. 1)” value in assay [1] (day 4 and day 5) is recorded as “better than that of Semaglutide”. The “in vitro activities” value in assay [2] is on record as “comparable”.
Consider `CC[C@H](C)[C@H](NC(=O)[C@H](Cc1ccccc1)NC(=O)[C@H](CCC(=O)O)NC(=O)[C@H](CCCNC(=N)N)NC(=O)[C@H](C)NC(=O)[C@H](C)NC(=O)[C@H](CCC(N)=O)NC(=O)[C@H](CCC(=O)O)NC(=O)[C@H](CCC(=O)O)NC(=O)[C@H](CC(C)C)NC(=O)[C@H](Cc1ccc(O)cc1)NC(=O)[C@H](CO)NC(=O)[C@H](CO)NC(=O)[C@@H](NC(=O)[C@H](CC(=O)O)NC(=O)[C@H](CO)NC(=O)[C@@H](NC(=O)[C@H](Cc1ccccc1)NC(=O)[C@@H](NC(=O)CNC(=O)[C@H](CCC(=O)O)NC(=O)CNC(=O)[C@@H](N)Cc1c[nH]cn1)[C@@H](C)O)[C@@H](C)O)C(C)C)C(=O)N[C@@H](CCCCNC(=O)COCCOCCNC(=O)COCCOCCNC(=O)CC[C@H](NC(=O)CCCCCCCCCCCCCCCCC(=O)O)C(=O)O)C(=O)N[C@@H](Cc1c[nH]c2ccccc12)C(=O)N[C@@H](CC(C)C)C(=O)N[C@H](C(=O)N[C@@H](CCCNC(=N)N)C(=O)NCC(=O)N[C@@H](CCCNC(=N)N)C(=O)NCC(=O)O)C(C)C` [M16, N-ε^30-[2-(2-[2-(2-[2-(2-[4-(17-carboxyheptadecanoylamino)-4(s)-carboxybutyrylamino]ethoxy)ethoxy]acetylamino)ethoxy]ethoxy)acetyl](Gly^8Glu^22Lys^30Arg^26,34-GLP-1(7-37)) peptide] (H-HGEGTFTSDVSSYLEEQAAREFIK([AEEA-AEEA-γGlu-C18 diacid])WLVRGRG-OH; N-terminus and C-terminus assumed), for which the “glucose-lowing effect compared with Semaglutide (FIG. 1)” value in assay [1] (day 2) is “lower than that of Semaglutide”. Also, in assay [2], the “in vitro activities” value was “comparable”.
Consider `CC[C@H](C)[C@H](NC(=O)[C@H](Cc1ccccc1)NC(=O)[C@H](CCC(=O)O)NC(=O)[C@H](CCCNC(=N)N)NC(=O)[C@H](C)NC(=O)[C@H](C)NC(=O)[C@H](CCC(N)=O)NC(=O)[C@H](CCC(=O)O)NC(=O)[C@H](CCC(=O)O)NC(=O)[C@H](CC(C)C)NC(=O)[C@H](Cc1ccc(O)cc1)NC(=O)[C@H](CO)NC(=O)[C@H](CO)NC(=O)[C@@H](NC(=O)[C@H](CC(=O)O)NC(=O)[C@H](CO)NC(=O)[C@@H](NC(=O)[C@H](Cc1ccccc1)NC(=O)[C@@H](NC(=O)CNC(=O)[C@H](CCC(=O)O)NC(=O)[C@H](CO)NC(=O)[C@@H](N)Cc1c[nH]cn1)[C@@H](C)O)[C@@H](C)O)C(C)C)C(=O)N[C@@H](CCCCNC(=O)COCCOCCNC(=O)COCCOCCNC(=O)CC[C@H](NC(=O)CCCCCCCCCCCCCCCCC(=O)O)C(=O)O)C(=O)N[C@@H](Cc1c[nH]c2ccccc12)C(=O)N[C@@H](CC(C)C)C(=O)N[C@H](C(=O)N[C@@H](CCCNC(=N)N)C(=O)NCC(=O)N[C@@H](CCCNC(=N)N)C(=O)NCC(=O)O)C(C)C` [M17, N-ε^30-[2-(2-[2-(2-[2-(2-[4-(17-carboxyheptadecanoylamino)-4(s)-carboxybutyrylamino]ethoxy)ethoxy]acetylamino)ethoxy]ethoxy)acetyl](Ser^8Glu^22Lys^30Arg^26,34-GLP-1(7-37)) peptide] (H-HSEGTFTSDVSSYLEEQAAREFIK([AEEA-AEEA-γGlu-C18 diacid])WLVRGRG-OH; N-terminus and C-terminus assumed), for which, in assay [1] (day 2), the “glucose-lowing effect compared with Semaglutide (FIG. 1)” value is reported as “lower than that of Semaglutide”. Also, in assay [2], the “in vitro activities” value was “comparable”.
